Laboratory results reported in ChEMBL document CHEMBL3832761, “MMV Pathogen Box Bioactivity Data” (2017).

Experiments:
Plasmodium falciparum [1] = experiment: Antimalarial activity: Gametocytes Plasmodium falciparum NF54 Gametocytes Stage V: inhibition at 10 uM (%); type: functional
HepG2 [2] = experiment: HepG2 CC50 (uM) Cytotoxicity; type: functional; details: Homo sapiens
Plasmodium berghei [3] = experiment: Antimalarial activity: Liver Stage Plasmodium berghei sporozoite Luciferase assay IC50 (uM); type: functional, organism-based
Plasmodium berghei [4] = experiment: Antimalarial activity: Liver Stage Plasmodium berghei sporozoite Luciferase assay: inhibition at 10 uM (%); type: functional
Plasmodium falciparum [5] = experiment: Antimalarial activity: Asexual Blood Stage Plasmodium falciparum Dd2 IC50 (uM); type: functional, organism-based
Plasmodium falciparum [6] = experiment: Antimalarial activity: Asexual Blood Stage Plasmodium falciparum 3D7 IC50 (uM); type: functional, organism-based
Plasmodium falciparum [7] = experiment: Antimalarial activity: Asexual Blood Stage Plasmodium falciparum W2 IC50 (uM); type: functional, organism-based
HepG2 [8] = experiment: Cytotoxicity data HepG2 CC20 (uM); type: functional
Trypanosoma cruzi = experiment: AntiTrypanosoma cruzi activity IC50 (uM); type: functional, organism-based
[9] = PMM CC50 (uM) Cytotoxicity; type: functional; details: Macrophage
Trypanosoma brucei [10] = experiment: AntiTrypanosoma brucei activity T. b. brucei IC50 (uM); type: functional, organism-based
Leishmania infantum = experiment: AntiLeishmania activity L. infantum (macrophages) IC50 (uM); type: functional, organism-based
Trypanosoma brucei [11] = experiment: AntiTrypanosoma brucei activity T. b. rhodesiense IC50 (uM); type: functional, organism-based
MRC5 = experiment: MRC5 CC50 (uM) Cytotoxicity; type: functional; details: Homo sapiens

SMILES | IC50 (Plasmodium berghei [3]) [nM] | IC50 (Plasmodium falciparum [5]) [nM] | IC50 (Plasmodium falciparum [6]) [nM] | IC50 (Plasmodium falciparum [7]) [nM] | IC50 (Trypanosoma cruzi) [nM] | IC50 (Trypanosoma brucei [10]) [nM] | IC50 (Leishmania infantum) [nM] | IC50 (Trypanosoma brucei [11]) [nM] | Inhibition (Plasmodium falciparum [1]) [%] | CC50 (HepG2 [2]) [nM] | Inhibition (Plasmodium berghei [4]) [%] | CC20 (HepG2 [8]) [nM] | CC50 [9] [nM] | CC50 (MRC5) [nM]
Cc1c[nH]c(CCNC(=O)c2cc(-c3ccc(Cl)cc3)cs2)n1 | 8570 | 2020 | 810 | 2860 | – | – | – | – | 15 | > 10000 | 85 | 6900 | – | –
NS(=O)(=O)c1cncc(-c2ccc3nccc(-c4cn[nH]c4)c3n2)c1 | 2170 | 630 | 600 | 730 | – | – | – | – | 70 | – | 96 | 490 | – | –
O=C1Nc2ccc(Br)cc2C12NCCc1c2[nH]c2ccccc12 (centres undefined) | > 10000 | 410 | 510 | 620 | – | – | – | – | 38 | > 10000 | 57 | 19900 | – | –
Cc1nn(C)c(C)c1NS(=O)(=O)c1c(Cl)cc(-c2ccnc(N3CCNCC3)c2)cc1Cl | – | – | – | – | 850 | < 130 | 1010 | < 130 | – | – | – | 50 | 1000 | 2000
COc1ccc(CN2CCOc3ccc(C(C)(O)CN(C)C)cc3C2)cc1C (centres undefined) | 930 | 1470 | > 2000 | – | – | – | – | – | 7 | > 10000 | 64 | 17400 | – | –
c1csc(-c2cnc3sc(NCC4CCOCC4)nn23)c1 | > 10000 | 1110 | 1370 | – | – | – | – | – | 18 | > 10000 | 58 | 30000 | – | –
CC1COC(Cn2cncn2)(c2ccc(Oc3ccc(Cl)cc3)cc2Cl)O1 (centres undefined) [DIFENOCONAZOLE] | – | – | – | – | 10 | 32500 | 44700 | 26200 | – | – | 85 | – | > 64000 | 30900
O=C(Nc1ccc2c(c1)B(O)OC2)c1ccccc1C(F)(F)F | – | – | – | – | 270 | 150 | 1410 | 230 | – | – | – | 410 | 16000 | > 32000
COc1cc(C2=NCCN2)ccc1-n1cc(-c2cccc(C3=NCCN3)c2)nn1 | – | – | – | – | > 32000 | > 32000 | > 32000 | 3810 | – | – | – | >80000 | > 32000 | > 32000
CO/N=C(\C(=O)OC)c1ccccc1CO/N=C(\C)c1cccc(C(F)(F)F)c1 | – | – | 300 | – | 1940 | 33600 | > 64000 | 26200 | – | – | 100 | – | > 64000 | > 64000
N=C(N)Nc1ccc(-c2ccc(-c3ccc(N=C(N)N)c(Cl)c3)o2)cc1Cl | – | – | – | – | 660 | 600 | 10200 | 200 | – | – | – | 13500 | 16000 | 15400
c1ccc(Oc2ccc(-c3cc(C4CCOCC4)[nH]n3)cc2)cc1 | – | – | – | – | 16400 | 7580 | > 32000 | 3770 | – | – | – | 10800 | > 32000 | 22800
c1ccc(Oc2ccc(-c3cc(N4CCNCC4)[nH]n3)cc2)cc1 | – | – | – | – | 4480 | 990 | 4060 | 970 | – | – | – | 6430 | 4000 | 16000
CC(C)(C)C(O)C(Oc1ccc(-c2ccccc2)cc1)n1cncn1 (centres undefined) [BITERTANOL] | – | – | – | – | 60 | 32900 | > 64000 | 28000 | – | – | 46 | – | > 64000 | > 64000
C[C@H](C(N)=O)N1CCCC[C@@H]1c1ccc(OCc2cccc(F)c2)cc1 | 1770 | – | – | – | – | – | – | – | 5 | > 10000 | 99 | 21800 | – | –
c1cc(C2=NCCN2)cc(-c2cc(-c3ccc(C4=NCCN4)cc3)no2)c1 | – | – | – | – | > 32000 | 5630 | > 32000 | 3000 | – | – | – | 4510 | > 32000 | > 32000
C[C@H](C(N)=O)N1CCCC[C@H]1c1ccc(OCc2cccc(F)c2)cc1 | 1360 | > 2000 | > 2000 | – | – | – | – | – | 0 | > 10000 | 95 | >80000 | – | –
CCCCN(CCCC)c1c(C#N)cc(S(=O)(=O)Nc2ccccc2)cc1C#N | – | – | – | – | 820 | 260 | 13600 | 240 | – | – | – | 11900 | 16000 | 3900
COc1cc(C2=NCCN2)cc2cc(-c3ccc(C4=NCCN4)cc3)oc12 | – | – | – | – | 13300 | 14500 | > 32000 | 780 | – | – | – | 14300 | > 32000 | > 32000
CCc1nn(C)c(C(=O)NCc2ccc(Oc3ccc(C)cc3)cc2)c1Cl [TOLFENPYRAD] | – | – | – | – | 5350 | 33000 | 45600 | 20400 | – | – | 94 | – | 48000 | 56000
N=C(N)c1ccc(-c2cc(-c3ccccc3)on2)cc1 | – | – | – | – | 4040 | 4060 | 2540 | 1080 | – | – | – | 2640 | 4000 | 12200
CO[C@@H](C(=O)N1Cc2[nH]nc(NC(=O)c3ccc(N4CCN(C)CC4)cc3)c2C1)c1ccccc1 [DANUSERTIB] | – | – | – | – | 6480 | 1020 | 4060 | 370 | – | – | – | 4830 | 4000 | 2700

Further lines, with some results ahead:

IC50 (Plasmodium berghei [3]) [nM] | IC50 (Plasmodium falciparum [5]) [nM] | IC50 (Plasmodium falciparum [6]) [nM] | IC50 (Plasmodium falciparum [7]) [nM] | IC50 (Trypanosoma cruzi) [nM] | IC50 (Trypanosoma brucei [10]) [nM] | IC50 (Leishmania infantum) [nM] | IC50 (Trypanosoma brucei [11]) [nM] | SMILES | Inhibition (Plasmodium falciparum [1]) [%] | CC50 (HepG2 [2]) [nM] | Inhibition (Plasmodium berghei [4]) [%] | CC20 (HepG2 [8]) [nM] | CC50 [9] [nM] | CC50 (MRC5) [nM]
> 10000 | 610 | 420 | 790 | – | – | – | – | CCOc1ccccc1NC(C)C(=O)Nc1cc(C(F)(F)F)ccc1N1CCOCC1 (centres undefined) | 39 | > 10000 | 56 | 29800 | – | –
– | – | – | – | 4040 | 980 | 4060 | 430 | CC1=Nc2ccc(Cl)cc2C(O)(c2ccc(C)cc2)N1CCN1CCCCC1 (centres undefined) | – | – | – | 10000 | 4000 | 16000
3480 | – | 1030 | – | – | – | – | – | O=C(NC1CC1)c1ccc(N2CCOc3ccc(Cl)cc32)s1 | 18 | > 10000 | 98 | – | – | –
3780 | 890 | 640 | 540 | – | – | – | – | NCC(=O)N1CCn2c(nc(-c3ccccc3)c2Nc2ccc3c(c2)OCO3)C1 | 56 | > 10000 | 100 | >80000 | – | –
9100 | 600 | 480 | 640 | – | – | – | – | Cc1ccc(Oc2ccc(NC(=O)CNc3ccccc3N3CCCC3=O)cc2)cc1 | 0 | 9800 | 89 | 17500 | – | –
1210 | 220 | 220 | 70 | – | – | – | – | Cc1cc(C)n2nc(C(=O)Nc3cc(C(F)(F)F)ccc3N3CCOCC3)nc2n1 | 4 | > 10000 | 88 | >80000 | – | –
> 7500 | 150 | 100 | 180 | – | – | – | – | COc1cncc(-c2cncc(N3CCN(c4ccncc4)CC3)n2)c1 | 12 | > 10000 | 64 | 4650 | – | –
– | – | – | – | 290 | 1030 | 1010 | 230 | N=C(N)Nc1ccc(-c2ccc(-c3ccc(NC(=N)N)cc3Cl)o2)c(Cl)c1 | – | – | – | 6750 | 1000 | 11600
2550 | 1640 | 1220 | 3000 | – | – | – | – | O=C(Nc1ccc(N2CCNCC2)nc1)c1oc(-c2ccccc2)nc1C(F)(F)F | 44 | > 10000 | 78 | 13400 | – | –
1390 | > 2000 | 1880 | – | – | – | – | – | Cc1cc(C(=O)Nc2cnn(Cc3ccc(Cl)cc3Cl)c2)no1 | 11 | > 10000 | 98 | 30600 | – | –
> 10000 | > 2000 | 1550 | – | – | – | – | – | Nc1ccc(C(=O)Nc2ccc(-c3nc4ccccc4o3)cc2)cc1 | 0 | > 10000 | 89 | 18200 | – | –
– | – | – | – | 1050 | < 130 | 850 | < 130 | CNC(=O)c1nn(C)c2c1C(C)(C)Cc1cnc(Nc3ccc(N4CCN(C)CC4)cc3)nc1-2 [MILCICLIB] | – | – | – | <260 | 1000 | 1100
360 | > 2000 | > 2000 | – | – | – | – | – | C[C@]1(O)C[C@@H](c2nc(-c3ccc4ccc(-c5ccccc5)nc4c3)c3c(N)nccn32)C1 [LINSITINIB] | 16 | > 10000 | 98 | 4670 | – | –
– | – | – | – | 990 | < 130 | > 32000 | < 130 | CCc1ccccc1-n1c(C)cn2c3c(=O)n(C(C(=O)OC)C(C)C)c(=O)n(C)c3nc12 (centres undefined) | – | – | – | 44300 | > 32000 | > 32000
– | – | – | – | > 32000 | > 32000 | > 32000 | 1630 | COc1ccc(C2=NCCN2)cc1-c1cn(-c2cccc(C3=NCCN3)c2)nn1 | – | – | – | >80000 | > 32000 | > 32000
